# Data published in patent publication US10138292B2, “Cell culture medium” (BIOLAMINA AB, priority 2010, dated 2018).
# What was measured:
# human ES cells = assay: Long-term culture with single cell dissociation passaging (Example 1); format: cell-based
# Protocol: Human ES cells were cultured on r-laminin-521-coated laboratory dishes in chemically defined O3 medium (described in Rodin et al., Nature Biotechnol., vol. 28, pp. 611-615 (2010)) at 37° C. in 5% CO2. Cells were routinely passed once every 10-12 days by exposure to Trypsin-EDTA solution (GIBCO Invitrogen) for 5 minutes at 37° C. They were then gently pipetted to break into single-cell suspension and defined trypsin inhibitor (GIBCO Invitrogen) was added. The cell suspension was centrifuged […], the supernatant discarded, the cell pellet resuspended in prewarmed O3 medium, and cells were then passed through a 40 μm sieve. After that cells were plated on new r-laminin-521-coated dishes at a concentration 30 Kcells/cm^2 (1:25-1:30 split ratio). Cells were fed once a day with fresh medium prewarmed in an incubator for 1 hour, except for the first day after a passage, when only a few drops of fresh medium were added. Control cells of the same line were cultured on Matrigel (BD Biosciences) in O3 medium as described in Rodin et al., Nature Biotechnol., vol. 28, pp. 611-615 (2010). Control cells were passaged in pieces.
# [1] = test system: Oct4, Nanog, SSEA4, PAX6, SOX17, SOX7; assay: Expression of pluripotency and differentiation markers (immunofluorescence, RT-PCR, FACS); format: cell-based, human; details: similar to cells on Matrigel passed as small clumps
# Protocol: For immunofluorescence studies, ES cells were cultured and fixed in 8-well slide chambers (BD Biosciences) or 96-well plate wells by 4% paraformaldehyde, permeabilized by 0.1% Triton-X and blocked by 10% bovine fetal serum (GIBCO Invitrogen Corporation) in phosphate-saline buffer (PBS) containing 0.1% Tween-20 (Sigma-Aldrich, St. Louis, http://www.sigmaaldrich.com) for one hour. Incubation with primary antibody was performed for 1.5 hours at room temperature. Incubation with secondary antibody and 4,6-diamidino-2-phenylindole (DAPI, Molecular Probes) was performed for 40 minutes. Between incubations, the specimens were washed with 0.1% Tween-20 in PBS buffer three to five times. Specimens were preserved in a fluorescence mounting medium (Dako, Glostrup, Denmark, http://www.dako.com), and observed under a fluorescence microscope (Leica, Heerbrugg, Switzerland, http://www.leica.com).
# Total RNA was isolated using Absolutely RNA Microprep Kit (Stratagene, La Jolla Calif., www.stratagene.com) according to the manufacturer's instructions. cDNA was synthesized using 0.2 μg of total RNA in 20 μl reaction mixture, containing oligo(dT)12-18 primers and Superscript II reverse transcriptase (GIBCO Invitrogen Corporation), according to the manufacturer's instructions. […] All data was analyzed with 7300 System SDS Software v 1.4. […]
# [2] = test system: human embryonic stem cells; assay: Survival of dissociated human embryonic stem cells one day after plating on precoated dishes; format: cell-based; details: single cell suspension, O3 medium, 30 Kcells/cm^2
# From the text: In other aspects, the present disclosure provides a new material, isolated laminin-521, which permits human embryonic stem cell survival after dissociation into single cell suspension. The stem cells were dissociated into single cell suspension by Trypsin-EDTA treatment, pelleted by centrifugation, resuspended into O3 medium, filtered through a 40 μm sieve, and plated at a density of 30 Kcells/cm^2 on cell culture dishes precoated by either isolated laminin-521, laminin-511, or Matrigel. After one day in culture, the cells plated on Matrigel died, as is known in the art.
substance,measurement,setting,value
"LN-521: protein formed by joining α5, β2 and γ1 laminin chains; human recombinant, produced in HEK293 cells",increase in the number of cells versus time compared with Matrigel,human ES cells; LN-521 single cell passaging vs Matrigel clumps,much faster rate
same,passages with robust proliferation at stable and high rate,"human ES cells; single cell suspension passaging every 10-12 days, 1:25 to 1:30 ratios (3 months)",at least 9 passages
same,"expression of pluripotency markers Oct4, Nanog, and SSEA4",[1],stable expression levels
same,survival after one day in culture,[2],survived
